Experiments:
[1] = test system: dermal fibroblasts obtained from explanted normal human skin; assay: in-vitro anti-stress test under UV activity (LDH); format: cell-based; conditions: control group = 100%, mean of 5 tests
Description: In this test, a culture of dermal fibroblasts obtained from explanted normal human skin is subjected to UV-induced stress. The amounts of the enzyme lacticodes-hydrogenase (LDH) produced as a consequence of the aforesaid stress are proportional to the cell damage caused. The culture medium contained, for example, 3 wt. % of glycogen (Dermo-saccharides GY®), and a series of control tests without the aforesaid additive was carried out for comparative purposes.

[2] = test system: cell homogenate of epithelial cells; assay: oxygraphy: stimulation of oxygen consumption; format: cell-based; conditions: control = 100%
Description: Another synergy could be observed with regard to oxygraphy, i.e. the stimulation of the oxygen consumption of a cell homogenate of epithelial cells.

Compound	protection of cells still alive after UV radiation ([1]; 3 wt. % glycogen in culture medium, 4 days after UV radiation) [%]	oxygen consumption ([2]; 3 wt. % glycogen added to control liquid (buffer)) [%]	protection of cells after UV radiation ([1]; 2 wt. % creatine in culture liquid) [%]	oxygen consumption ([2]; 2 wt. % creatine added to control liquid (buffer)) [%]
glycogen	128	135		
CN(CC(=O)O)C(=N)N [creatine, N-carbamidoyl-N-methylglycine]			110	119

Reference: US7217423B2, “Revitalising active complex for the skin” (Coty B.V., priority 2001, dated 2007)
